Type in all cases: in vivo
In test [1] the test system is Mycosphaerella graminicola; Anamorph: Septoria tritici. As to the kind of experiment: Leaf Blotch of Wheat (SEPTTR) disease control. Conditions: Zymoseptoria tritici; for pest or weed control at 100 ppm: rate 100 ppm; for pest or weed control at 121.5 g/ha: rate 121.5 g/H. Put shortly: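 Preventive or curative tests: first-leaf Yuma wheat, sprayed to run-off, inoculated with S. tritici, dew chamber at 100% humidity, then greenhouse at 20° C. Severity on the first leaf is scored on a 0–100% scale and expressed as % control against untreated plants.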

Test [2] has as its system Puccinia triticina; Synonym: Puccinia recondite f. Sp. Tritici. The experiment in a line: Wheat Brown Rust (PUCCRT) disease control. The note with it: for pest or weed control at 100 ppm / pest or weed control at 121.5 g/ha: Puccinia triticina, topical; for pest or weed control at 100 ppm: rate 100 ppm. Put shortly: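 Brown rust on first-leaf Yuma wheat: spore inoculation before or after spray application (acetone/Triton X-100 solution, or EC with Trycol in track spray), overnight 100% RH at 22 °C, disease developed at 24 °C. Severity scored 0–100% and converted to percent control against untreated.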

The subject of test [3] is Phakopsora pachyrhizi. The experiment in a line: Asian Soybean Rust (PHAKPA) disease control. Conditions: for pest or weed control at 25 ppm: Phakopsora pachyrhizi, topical. In short, it runs like this: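 Compounds in acetone diluted with nine volumes water containing 0.011% Tween 20, sprayed to run-off on two-week-old Williams 82 soybean seedlings, inoculated 3 days before or 1 day after treatment. Plants held 24 h in dark dew room at 22 °C, 100% RH, then at 23 °C; disease severity scored on sprayed leaves.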

Test [4] relates to Blumeria graminis f. sp. hordei; Synonym: Erysiphe graminis f. sp. hordei. The experiment in a line: Barley Powdery Mildew (ERYSGH) disease control. The note with it: 1 Day Protectant; for pest or weed control at 100 ppm: Blumeria graminis, 24 h, read-out: Disease Control ERYSGH 1 DP. As to the method:
Technical grades of materials were dissolved in acetone, which were then mixed with nine volumes of water containing 110 ppm Triton X-100. The fungicide solutions were applied onto wheat seedlings using an automated booth sprayer to run-off. All sprayed plants were allowed to air dry prior to further handling. All fungicides were evaluated using the aforementioned method for their activity vs. all target diseases. Wheat leaf blotch and brown rust activity were also evaluated using track spray applications, in which case the fungicides were formulated as EC formulations, containing 0.1% Trycol 5941 in the spray solutions. Wheat plants (variety Yuma) were grown from seed in a greenhouse in 50% mineral soil/50% soil-less Metro mix until the first leaf was fully emerged, with 7-10 seedlings per pot. These plants were inoculated with an aqueous spore suspension of Septoria tritici either prior to or after fungicide treatments. After inoculation the plants were kept in 100% relative humidity (one day in a dark dew chamber followed by two to three days in a lighted dew chamber at 20° C.) to permit spores to germinate and infect the leaf. The plants were then transferred to a greenhouse set at 20° C. for disease to develop. When disease symptoms were fully expressed on the 1st leaves of untreated plants, infection levels were assessed on a scale of 0 to 100 percent disease severity. Percent disease control was calculated using the ratio of disease severity on treated plants relative to untreated plants. Barley seedlings (variety Harrington) were propagated in soil-less Metro mix, with each pot having 8 to 12 plants, and used in the test when first leaf was fully emerged. Test plants were inoculated by dusting with infected stock plants 24 hr after fungicide treatments. After inoculation the plants were kept in a greenhouse set at 20° C. for disease to develop. Fungicide formulation, application and disease assessment on the sprayed leaves followed the procedures as described in the Example A.

The mark [5] stands for this setting: 24 h, 1 Day Protectant, read-out: SEPTTR 1 DP disease control.
Where [6] appears, read: 72 h, 3 Day Curative, read-out: SEPTTR 3 DC disease control.
[7] abbreviates: 24 h, 1 Day Protectant, read-out: PUCCRT 1 DP disease control.
[8] abbreviates: 24 h, 1 Day Protectant, rate 121.5 g/H, read-out: PUCCRT 1 DP disease control.
Setting [9] is: 72 h, 3 Day Curative, read-out: PUCCRT 3 DC disease control.
The mark [10] stands for this setting: 72 h, 3 Day Curative, rate 121.5 g/H, read-out: PUCCRT 3 DC disease control.
Where [11] appears, read: 24 h, 1 Day Protectant, read-out: Disease Control PHAKPA 1DP.
[12] abbreviates: 72 h, 3 Day Curative, read-out: Disease Control PHAKPA 3DC.

Read-outs that look alike come from different tables or passages of the source.

Consider `CCCO[C@@H]1[C@@H](CCC(C)C)CCC[C@H](NC(=O)c2nccc(OC)c2OC(C)=O)C(=O)O[C@H]1C` [Compound F64], for which the pest or weed control at 100 ppm in test [1] (setting [5]), in test [1] (setting [6]), in test [2] (setting [7]), in test [2] (setting [9]) and in test [4] was 80 to 100% each time. Moreover, the pest or weed control at 121.5 g/ha in test [1] (setting [5]), in test [1] (setting [6]), in test [2] (setting [8]) and in test [2] (setting [10]) was 80 to 100% each time. The pest or weed control at 25 ppm in test [3] (setting [11]) and in test [3] (setting [12]) was 80 to 100% in each case.
As to `COc1ccnc(C(=O)N[C@H]2CCC[C@H](Cc3ccc(F)cc3)[C@@H](OCC3CC3)[C@H](C)OC2=O)c1OC(C)=O` [Compound F67], the pest or weed control at 100 ppm in test [1] (setting [5]), in test [1] (setting [6]), in test [2] (setting [7]), in test [2] (setting [9]) and in test [4] was 80 to 100% throughout. For the same molecule, the pest or weed control at 121.5 g/ha in test [1] (setting [5]), in test [1] (setting [6]), in test [2] (setting [8]) and in test [2] (setting [10]) was 80 to 100% each time. For the same molecule, the figures for the pest or weed control at 25 ppm in test [3] (setting [11]) and in test [3] (setting [12]) were 80 to 100% and 0 to 80%, respectively.
On to `COc1ccnc(C(=O)N[C@H]2CCC[C@H](Cc3ccccc3)[C@@H](OCC(C)C)[C@H](C)OC2=O)c1OC(C)=O` [Compound F70], for which the pest or weed control at 100 ppm in test [1] (setting [5]), in test [1] (setting [6]), in test [2] (setting [7]), in test [2] (setting [9]) and in test [4] was 80 to 100% in each case. The pest or weed control at 121.5 g/ha in test [1] (setting [5]), in test [1] (setting [6]), in test [2] (setting [8]) and in test [2] (setting [10]) was 80 to 100% each time. Further, the results for the pest or weed control at 25 ppm in test [3] (setting [11]) and in test [3] (setting [12]) were 80 to 100% and 0 to 80%, respectively.
Consider `COCC[C@H]1CCC[C@H](NC(=O)c2nccc(OC)c2OC(C)=O)C(=O)O[C@@H](C)[C@@H]1Oc1ccccc1` [Compound F78], for which the pest or weed control at 100 ppm in test [1] (setting [5]) lay within 80 to 100%; in test [1] (setting [6]), 80 to 100%; in test [2] (setting [7]), 80 to 100%; in test [2] (setting [9]), 80 to 100%; in test [4], 0 to 80%. Also, the pest or weed control at 121.5 g/ha in test [1] (setting [5]), in test [1] (setting [6]), in test [2] (setting [8]) and in test [2] (setting [10]) was 80 to 100% in each case. The pest or weed control at 25 ppm in test [3] (setting [11]) and in test [3] (setting [12]) was 80 to 100% throughout.
In the case of `COc1ccnc(C(=O)N[C@H]2CCC[C@H](CCBr)[C@@H](Oc3ccccc3)[C@H](C)OC2=O)c1OC(C)=O` [Compound F80], the pest or weed control at 100 ppm in test [1] (setting [5]) lay within 80 to 100%; in test [1] (setting [6]), 80 to 100%; in test [2] (setting [7]), 80 to 100%; in test [2] (setting [9]), 80 to 100%; in test [4], 0 to 80%. In addition, the pest or weed control at 121.5 g/ha in test [1] (setting [5]), in test [1] (setting [6]), in test [2] (setting [8]) and in test [2] (setting [10]) was 80 to 100% throughout. Further, the pest or weed control at 25 ppm is 80 to 100% in test [3] (setting [11]) and 0 to 80% in test [3] (setting [12]).
Consider `CC[C@H]1CCC[C@H](NC(=O)c2nccc(OC)c2OC(C)=O)C(=O)O[C@@H](C)[C@@H]1Oc1ccccc1` [Compound F81], for which the pest or weed control at 100 ppm in test [1] (setting [5]) lay in the range of 80 to 100%; in test [1] (setting [6]), 80 to 100%; in test [2] (setting [7]), 80 to 100%; in test [2] (setting [9]), 80 to 100%; in test [4], 0 to 80%. In addition, the pest or weed control at 121.5 g/ha in test [1] (setting [5]), in test [1] (setting [6]), in test [2] (setting [8]) and in test [2] (setting [10]) was 80 to 100% in each case. Further, the pest or weed control at 25 ppm in test [3] (setting [11]) and in test [3] (setting [12]) was 80 to 100% in each case.
Consider `COc1ccnc(C(=O)N[C@H]2CCC[C@H](CC(F)F)[C@@H](Oc3ccccc3)[C@H](C)OC2=O)c1OC(C)=O` [Compound F82], for which the pest or weed control at 100 ppm lay within 80 to 100% in test [1] (setting [5]); 80 to 100% in test [1] (setting [6]); 80 to 100% in test [2] (setting [7]); 80 to 100% in test [2] (setting [9]); 0 to 80% in test [4]. Also, the pest or weed control at 121.5 g/ha in test [1] (setting [5]), in test [1] (setting [6]), in test [2] (setting [8]) and in test [2] (setting [10]) was 80 to 100% throughout. For the same molecule, the pest or weed control at 25 ppm in test [3] (setting [11]) and in test [3] (setting [12]) was 80 to 100% in each case.
For `C=C[C@H]1CCC[C@H](NC(=O)c2nccc(OC)c2OC(C)=O)C(=O)O[C@@H](C)[C@@H]1Oc1ccccc1` [Compound F86], the pest or weed control at 121.5 g/ha in test [1] (setting [5]), in test [1] (setting [6]), in test [2] (setting [8]) and in test [2] (setting [10]) was 80 to 100% in each case. Also, the figures for the pest or weed control at 25 ppm in test [3] (setting [11]) and in test [3] (setting [12]) were 80 to 100% and 0 to 80%, respectively. The pest or weed control at 100 ppm in test [4] lay in the range of 0 to 80%.
As for `CCCO[C@@H]1[C@@H](CCC(C)C)CCC[C@H](NC(=O)c2nccc(OC)c2OCOC(C)=O)C(=O)O[C@H]1C` [Compound F92], the pest or weed control at 100 ppm in test [1] (setting [5]) lay in the range of 80 to 100%; in test [1] (setting [6]), 80 to 100%; in test [2] (setting [7]), 80 to 100%; in test [2] (setting [9]) it was 80 to 100%; in test [4] it was 0 to 80%. The pest or weed control at 121.5 g/ha in test [1] (setting [5]), in test [1] (setting [6]), in test [2] (setting [8]) and in test [2] (setting [10]) was 80 to 100% in each case. Also, the pest or weed control at 25 ppm in test [3] (setting [11]) and in test [3] (setting [12]) was 80 to 100% each time.
As for `COc1ccnc(C(=O)N[C@H]2CCC[C@H](Cc3ccc(F)cc3)[C@@H](OCC3CC3)[C@H](C)OC2=O)c1OCOC(C)=O` [Compound F96], the pest or weed control at 100 ppm in test [1] (setting [5]), in test [1] (setting [6]), in test [2] (setting [7]) and in test [2] (setting [9]) was 80 to 100% each time. In addition, the pest or weed control at 121.5 g/ha in test [1] (setting [5]), in test [1] (setting [6]) and in test [2] (setting [8]) was 80 to 100% throughout. Also, the “PUCCRT 3 DC disease control” value in test [2] (3 Day Curative, rate 121.5 g/H) is recorded as “B (More than 0-Less than 80)”. Further, the “Disease Control PHAKPA 3DC” value in test [3] (25 ppm, 3 Day Curative) is listed as “B (More than 0-Less than 80)”. The pest or weed control at 25 ppm in test [3] (setting [11]) is 80 to 100%. Moreover, the “Disease Control ERYSGH 1 DP” value in test [4] (100 ppm) was “B (More than 0-Less than 80)”.

Values taken from patent US9265253B2, “Use of macrocyclic picolinamides as fungicides” (DOW AGROSCIENCES LLC, priority 2013, dated 2016).
